Test results as given in patent publication US7880007B2, “Bicyclic substituted phenyl piperidine modulators of muscarinic receptors” (Vertex Pharmaceuticals Incorporated, priority 2004, dated 2011).

Key:
Format in all cases: cell-based
M4 muscarinic receptor = biological target: T1, M4 muscarinic receptor (Homo sapiens, UniProt P08173); assay: Functional mobilization of intracellular calcium (FLIPR), M4-CHO cells; settings: for Emax: 100% efficacy = maximum response obtained with the Carbachol control; for M4 Activity: M4-CHO cells, calcium mobilization (FLIPR)
T1 construct: expressed in transfected cells; host or cells: CHO (M4-CHO)
T1 sequence (P08173 1-479): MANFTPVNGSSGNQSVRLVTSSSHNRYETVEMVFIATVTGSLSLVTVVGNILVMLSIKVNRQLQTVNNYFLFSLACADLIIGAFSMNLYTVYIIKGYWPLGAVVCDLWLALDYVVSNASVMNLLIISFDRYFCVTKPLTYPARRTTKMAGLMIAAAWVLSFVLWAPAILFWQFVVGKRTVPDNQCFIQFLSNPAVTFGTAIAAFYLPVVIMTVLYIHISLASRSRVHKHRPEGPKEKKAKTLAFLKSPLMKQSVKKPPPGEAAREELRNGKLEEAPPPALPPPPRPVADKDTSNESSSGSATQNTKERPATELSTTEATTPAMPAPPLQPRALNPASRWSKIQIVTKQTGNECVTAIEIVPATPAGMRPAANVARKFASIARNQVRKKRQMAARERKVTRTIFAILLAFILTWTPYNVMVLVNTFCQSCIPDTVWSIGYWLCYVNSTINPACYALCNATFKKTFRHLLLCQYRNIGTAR
Procedure, shortened: (§1)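 FLIPR fluorescence (ex 488, em 540 nm) recorded 60 sec after compound addition to dye-loaded CHO cells. Agonist mode: compound alone. Antagonist mode: 15 min compound pre-incubation, then carbachol at EC80, or co-application. Efficacy expressed as % of maximal carbachol response.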

M1 muscarinic receptor = biological target: T2, M1 muscarinic receptor (Homo sapiens, UniProt P11229); assay: Functional mobilization of intracellular calcium (FLIPR), M1-CHO cells; settings: for Emax: 100% efficacy = maximum response obtained with the Carbachol control; for M1 Activity: M1-CHO cells, calcium mobilization (FLIPR)
T2 construct: expressed in transfected cells; host or cells: CHO (M1-CHO)
T2 sequence (P11229 1-460): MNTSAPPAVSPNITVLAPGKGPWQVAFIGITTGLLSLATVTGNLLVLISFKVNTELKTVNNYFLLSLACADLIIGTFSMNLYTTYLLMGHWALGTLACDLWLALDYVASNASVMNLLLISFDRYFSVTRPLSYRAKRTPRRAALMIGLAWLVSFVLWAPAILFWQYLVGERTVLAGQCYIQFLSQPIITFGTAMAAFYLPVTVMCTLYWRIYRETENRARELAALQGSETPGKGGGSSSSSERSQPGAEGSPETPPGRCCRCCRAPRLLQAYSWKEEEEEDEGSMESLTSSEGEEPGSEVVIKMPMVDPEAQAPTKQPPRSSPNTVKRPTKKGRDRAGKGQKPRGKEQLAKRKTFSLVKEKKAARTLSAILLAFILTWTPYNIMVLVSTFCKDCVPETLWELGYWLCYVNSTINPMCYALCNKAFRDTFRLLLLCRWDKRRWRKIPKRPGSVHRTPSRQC
Procedure, shortened: as §1

M3 muscarinic receptor = biological target: T3, M3 muscarinic receptor (Homo sapiens, UniProt P20309); assay: Functional mobilization of intracellular calcium (FLIPR), M3-CHO cells; settings: for Emax: 100% efficacy = maximum response obtained with the Carbachol control; for M3 Activity: M3-CHO cells, calcium mobilization (FLIPR)
T3 construct: expressed in transfected cells; host or cells: CHO (M3-CHO)
Procedure, shortened: as §1

M2 muscarinic receptor = biological target: T4, M2 muscarinic receptor (Homo sapiens, UniProt P08172); assay: Functional mobilization of intracellular calcium (FLIPR), M2-CHO cells; settings: for Emax: 100% efficacy = maximum response obtained with the Carbachol control; for M2 Activity: M2-CHO cells, calcium mobilization (FLIPR)
T4 construct: expressed in transfected cells; host or cells: CHO (M2-CHO)
T4 sequence (P08172 1-466): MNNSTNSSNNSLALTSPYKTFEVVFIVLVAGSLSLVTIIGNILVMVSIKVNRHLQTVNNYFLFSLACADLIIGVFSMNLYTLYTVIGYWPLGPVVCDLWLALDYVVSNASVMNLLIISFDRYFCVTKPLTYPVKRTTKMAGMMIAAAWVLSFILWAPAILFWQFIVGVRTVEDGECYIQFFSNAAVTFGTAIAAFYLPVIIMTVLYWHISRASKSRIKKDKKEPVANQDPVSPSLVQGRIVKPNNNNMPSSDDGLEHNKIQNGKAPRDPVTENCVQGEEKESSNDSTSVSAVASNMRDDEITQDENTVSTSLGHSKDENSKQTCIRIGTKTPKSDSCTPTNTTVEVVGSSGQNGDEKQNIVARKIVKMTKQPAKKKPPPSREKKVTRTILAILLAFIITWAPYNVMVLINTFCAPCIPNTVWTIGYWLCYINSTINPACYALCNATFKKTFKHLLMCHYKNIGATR
Procedure, shortened: as §1

T3 sequence (P20309 whole entry): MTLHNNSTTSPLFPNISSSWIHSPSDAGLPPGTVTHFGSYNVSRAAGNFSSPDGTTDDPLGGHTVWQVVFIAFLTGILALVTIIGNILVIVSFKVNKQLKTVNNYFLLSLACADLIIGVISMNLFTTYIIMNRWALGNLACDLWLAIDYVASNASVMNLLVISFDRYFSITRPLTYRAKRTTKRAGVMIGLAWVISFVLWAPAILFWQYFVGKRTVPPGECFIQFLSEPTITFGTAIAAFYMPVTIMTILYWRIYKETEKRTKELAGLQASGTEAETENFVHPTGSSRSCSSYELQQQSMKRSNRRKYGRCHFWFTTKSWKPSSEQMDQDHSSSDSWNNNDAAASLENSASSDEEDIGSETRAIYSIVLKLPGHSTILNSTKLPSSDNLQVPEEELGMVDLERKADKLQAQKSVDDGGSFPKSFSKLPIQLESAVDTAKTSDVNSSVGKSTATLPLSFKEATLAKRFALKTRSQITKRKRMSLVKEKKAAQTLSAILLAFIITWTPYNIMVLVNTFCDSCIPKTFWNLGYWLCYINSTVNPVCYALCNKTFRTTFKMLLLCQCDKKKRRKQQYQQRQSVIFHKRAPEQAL

CCOC(=O)N1C2CCC1CC(N1CCC(c3cc(F)cc(F)c3OC)CC1)C2 (stereo not drawn) [Compound 198]
Emax (M4 muscarinic receptor): 25 to 100%
M4 Activity (M4 muscarinic receptor): +++ (activity was measured to be less than 1.0 μM)
Emax (M1 muscarinic receptor): 25 to 100%
M1 Activity (M1 muscarinic receptor): ++ (activity was measured to be from 1.0 μM to 5.0 μM)
Emax (M3 muscarinic receptor): < 25%
M3 Activity (M3 muscarinic receptor): + (activity was measured to be greater than 5.0 μM)
Emax (M2 muscarinic receptor): < 25%
M2 Activity (M2 muscarinic receptor): + (activity was measured to be greater than 5.0 μM)

COc1ccccc1C1CCN(C2CCCC3(CCCCC3)C2)CC1 (stereo not drawn) [Compound 199]
Emax (M4 muscarinic receptor): < 25%
M4 Activity (M4 muscarinic receptor): + (activity was measured to be greater than 5.0 μM)
Emax (M1 muscarinic receptor): < 25%
M1 Activity (M1 muscarinic receptor): + (activity was measured to be greater than 5.0 μM)
Emax (M3 muscarinic receptor): < 25%
M3 Activity (M3 muscarinic receptor): + (activity was measured to be greater than 5.0 μM)
Emax (M2 muscarinic receptor): < 25%
M2 Activity (M2 muscarinic receptor): + (activity was measured to be greater than 5.0 μM)

COc1ccc(F)cc1C1CCN(C2CCCCC2)CC1 [Compound 200]
Emax (M4 muscarinic receptor): 25 to 100%
M4 Activity (M4 muscarinic receptor): +++ (activity was measured to be less than 1.0 μM)
Emax (M1 muscarinic receptor): 25 to 100%
M1 Activity (M1 muscarinic receptor): +++ (activity was measured to be less than 1.0 μM)
Emax (M3 muscarinic receptor): < 25%
M3 Activity (M3 muscarinic receptor): + (activity was measured to be greater than 5.0 μM)
Emax (M2 muscarinic receptor): 25 to 100%
M2 Activity (M2 muscarinic receptor): ++ (activity was measured to be from 1.0 μM to 5.0 μM)

CCOC(=O)N1C2CCC1CC(N1CCC(c3ccccc3OC)CC1)C2 (stereo not drawn) [Compound 202]
Emax (M4 muscarinic receptor): 25 to 100%
M4 Activity (M4 muscarinic receptor): +++ (activity was measured to be less than 1.0 μM)
Emax (M1 muscarinic receptor): 25 to 100%
M1 Activity (M1 muscarinic receptor): +++ (activity was measured to be less than 1.0 μM)
Emax (M3 muscarinic receptor): < 25%
M3 Activity (M3 muscarinic receptor): + (activity was measured to be greater than 5.0 μM)
Emax (M2 muscarinic receptor): 25 to 100%
M2 Activity (M2 muscarinic receptor): ++ (activity was measured to be from 1.0 μM to 5.0 μM)

Fc1ccc(F)c(C2CCN(C3C[C@H]4CC[C@H]3C4)CC2)c1 (stereo partly drawn) [Compound 205]
Emax (M4 muscarinic receptor): 25 to 100%
M4 Activity (M4 muscarinic receptor): +++ (activity was measured to be less than 1.0 μM)
Emax (M1 muscarinic receptor): 25 to 100%
M1 Activity (M1 muscarinic receptor): ++ (activity was measured to be from 1.0 μM to 5.0 μM)
Emax (M3 muscarinic receptor): < 25%
M3 Activity (M3 muscarinic receptor): + (activity was measured to be greater than 5.0 μM)
Emax (M2 muscarinic receptor): 25 to 100%
M2 Activity (M2 muscarinic receptor): ++ (activity was measured to be from 1.0 μM to 5.0 μM)

COc1ccc(-c2cc(F)ccc2F)cc1C1CCN([C@H]2C[C@H]3CC[C@H]2C3)CC1 [Compound 206]
Emax (M4 muscarinic receptor): 25 to 100%
M4 Activity (M4 muscarinic receptor): + (activity was measured to be greater than 5.0 μM)
Emax (M1 muscarinic receptor): < 25%
M1 Activity (M1 muscarinic receptor): + (activity was measured to be greater than 5.0 μM)
Emax (M3 muscarinic receptor): < 25%
M3 Activity (M3 muscarinic receptor): + (activity was measured to be greater than 5.0 μM)
Emax (M2 muscarinic receptor): < 25%
M2 Activity (M2 muscarinic receptor): + (activity was measured to be greater than 5.0 μM)

COc1ccc(F)cc1C1CCN(C2CC3CCC(C3)C2)CC1 (stereo not drawn) [Compound 207]
Emax (M4 muscarinic receptor): 25 to 100%
M4 Activity (M4 muscarinic receptor): +++ (activity was measured to be less than 1.0 μM)
Emax (M1 muscarinic receptor): 25 to 100%
M1 Activity (M1 muscarinic receptor): +++ (activity was measured to be less than 1.0 μM)
Emax (M3 muscarinic receptor): < 25%
M3 Activity (M3 muscarinic receptor): + (activity was measured to be greater than 5.0 μM)
Emax (M2 muscarinic receptor): < 25%
M2 Activity (M2 muscarinic receptor): + (activity was measured to be greater than 5.0 μM)

COc1ccc(Cl)cc1C1CCN(C2CC3CCC2C3)CC1 (stereo not drawn) [Compound 209, 1-(bicyclo[2.2.1]heptan-2-yl)-4-(5-chloro-2-methoxyphenyl)-piperidine]
Emax (M4 muscarinic receptor): 25 to 100%
M4 Activity (M4 muscarinic receptor): +++ (activity was measured to be less than 1.0 μM)
Emax (M1 muscarinic receptor): 25 to 100%
M1 Activity (M1 muscarinic receptor): ++ (activity was measured to be from 1.0 μM to 5.0 μM)
Emax (M3 muscarinic receptor): < 25%
M3 Activity (M3 muscarinic receptor): + (activity was measured to be greater than 5.0 μM)
Emax (M2 muscarinic receptor): 25 to 100%
M2 Activity (M2 muscarinic receptor): ++ (activity was measured to be from 1.0 μM to 5.0 μM)

COc1ccccc1C1CCN(C2CC[C@@H](C)C2)CC1 (stereo partly drawn) [Compound 210]
Emax (M4 muscarinic receptor): 25 to 100%
M4 Activity (M4 muscarinic receptor): +++ (activity was measured to be less than 1.0 μM)
Emax (M1 muscarinic receptor): 25 to 100%
M1 Activity (M1 muscarinic receptor): + (activity was measured to be greater than 5.0 μM)
Emax (M3 muscarinic receptor): < 25%
M3 Activity (M3 muscarinic receptor): + (activity was measured to be greater than 5.0 μM)
Emax (M2 muscarinic receptor): < 25%
M2 Activity (M2 muscarinic receptor): + (activity was measured to be greater than 5.0 μM)

CCOC(=O)N1CCC(N2CCC(c3ccccc3OC)CC2)CC1 [Compound 211]
Emax (M4 muscarinic receptor): > 100%
M4 Activity (M4 muscarinic receptor): +++ (activity was measured to be less than 1.0 μM)
Emax (M1 muscarinic receptor): 25 to 100%
M1 Activity (M1 muscarinic receptor): +++ (activity was measured to be less than 1.0 μM)
Emax (M3 muscarinic receptor): 25 to 100%
M3 Activity (M3 muscarinic receptor): + (activity was measured to be greater than 5.0 μM)
Emax (M2 muscarinic receptor): 25 to 100%
M2 Activity (M2 muscarinic receptor): +++ (activity was measured to be less than 1.0 μM)

Cc1ccc(F)cc1C1CCN([C@H]2C[C@H]3CC[C@H]2C3)CC1 [Compound 212]
Emax (M4 muscarinic receptor): 25 to 100%
M4 Activity (M4 muscarinic receptor): +++ (activity was measured to be less than 1.0 μM)
Emax (M1 muscarinic receptor): 25 to 100%
M1 Activity (M1 muscarinic receptor): + (activity was measured to be greater than 5.0 μM)
Emax (M3 muscarinic receptor): < 25%
M3 Activity (M3 muscarinic receptor): + (activity was measured to be greater than 5.0 μM)
Emax (M2 muscarinic receptor): < 25%
M2 Activity (M2 muscarinic receptor): + (activity was measured to be greater than 5.0 μM)

COc1ccc(Cl)cc1C1(F)CCN(C[C@H]2C[C@H]3C=C[C@H]2C3)CC1 [Compound 213]
Emax (M4 muscarinic receptor): 25 to 100%
M4 Activity (M4 muscarinic receptor): +++ (activity was measured to be less than 1.0 μM)
Emax (M1 muscarinic receptor): 25 to 100%
M1 Activity (M1 muscarinic receptor): + (activity was measured to be greater than 5.0 μM)
Emax (M3 muscarinic receptor): < 25%
M3 Activity (M3 muscarinic receptor): + (activity was measured to be greater than 5.0 μM)
Emax (M2 muscarinic receptor): 25 to 100%
M2 Activity (M2 muscarinic receptor): ++ (activity was measured to be from 1.0 μM to 5.0 μM)

COc1ccc(-c2ccc(S(=O)(=O)C(C)C)cc2)cc1C1CCN([C@H]2C[C@H]3CC[C@H]2C3)CC1 [Compound 214]
Emax (M4 muscarinic receptor): 25 to 100%
M4 Activity (M4 muscarinic receptor): ++ (activity was measured to be from 1.0 μM to 5.0 μM)
Emax (M1 muscarinic receptor): 25 to 100%
M1 Activity (M1 muscarinic receptor): + (activity was measured to be greater than 5.0 μM)
Emax (M3 muscarinic receptor): < 25%
M3 Activity (M3 muscarinic receptor): + (activity was measured to be greater than 5.0 μM)
Emax (M2 muscarinic receptor): < 25%
M2 Activity (M2 muscarinic receptor): + (activity was measured to be greater than 5.0 μM)

CCOC(=O)N1C2CCC1CC(N1CCC(c3cc(-c4ccc(S(=O)(=O)N5CCCC5)cc4)ccc3OC)CC1)C2 (stereo not drawn) [Compound 215]
Emax (M4 muscarinic receptor): < 25%
M4 Activity (M4 muscarinic receptor): + (activity was measured to be greater than 5.0 μM)
Emax (M1 muscarinic receptor): 25 to 100%
M1 Activity (M1 muscarinic receptor): + (activity was measured to be greater than 5.0 μM)
Emax (M3 muscarinic receptor): < 25%
M3 Activity (M3 muscarinic receptor): + (activity was measured to be greater than 5.0 μM)
Emax (M2 muscarinic receptor): < 25%
M2 Activity (M2 muscarinic receptor): + (activity was measured to be greater than 5.0 μM)

COc1ccc(-c2ccccc2F)cc1C1CCN([C@H]2C[C@H]3CC[C@H]2C3)CC1 [Compound 216]
Emax (M4 muscarinic receptor): 25 to 100%
M4 Activity (M4 muscarinic receptor): + (activity was measured to be greater than 5.0 μM)
Emax (M1 muscarinic receptor): < 25%
M1 Activity (M1 muscarinic receptor): + (activity was measured to be greater than 5.0 μM)
Emax (M3 muscarinic receptor): < 25%
M3 Activity (M3 muscarinic receptor): + (activity was measured to be greater than 5.0 μM)
Emax (M2 muscarinic receptor): < 25%
M2 Activity (M2 muscarinic receptor): + (activity was measured to be greater than 5.0 μM)
